Here are results for 31 compounds from US11414402B2, “Sulfonamide-substituted cyanopyrrolidines with activity as DUB inhibitors” (MISSION THERAPEUTICS LIMITED, priority 2017, dated 2022).

One experiment deals with UCHL1 (Homo sapiens (Human), UniProt P09936). Nature of the experiment: UCHL1 biochemical IC50 assay (fluorescence polarisation). The protocol: The UCHL1 construct was PCR amplified and cloned into a pFLAG-CMV-6a vector (Sigma-Aldrich) with an N-terminal FLAG tag. HEK293T cells were transfected with FLAG-UCHL1 using TransIT-LT1 transfection reagent (Mirus) according to the manufacturer's instructions. Cells were harvested 40 hours after transfection. […] The resin was washed two times with low salt buffer and one time with high salt buffer (20 mM Tris, pH 7.5, 500 mM NaCl, 0.5 mM EDTA, 5 mM beta-mercaptoethanol, protease inhibitors (complete mini, Roche) and phosphatase inhibitors (PhosSTOP mini, Roche). To elute the bound UCHL1, elution buffer (10 mM Tris, pH 7.5, 150 mM NaCl, 0.5 mM EDTA, 10% glycerol, 0.5% NP40, 5 mM beta-mercaptoethanol, 0.15 mg/ml 3× FLAG peptide (Sigma-Aldrich)) was added to the resin and incubated at 4° C. for 2.5 hours rotating. The resin was centrifuged at 4000 rpm for 30 seconds, and the supernatant containing purified FLAG-UCHL1 was removed and stored at −80° C.
UCHL1 was diluted in reaction buffer (20 mM Tris, pH 7.5, 100 mM NaCl, 0.05% Tween 20, 0.5 mg/ml BSA, 5 mM beta-mercaptoethanol) to the equivalent of 0, 0.01, 0.05, 0.1, 0.5, and 1 μl/well. Buffer was optimised for optimal temperature, pH, reducing agent, salts, time of incubation, and detergent. Reactions were initiated by the addition of 50 nM of TAMRA labelled peptide linked to ubiquitin via an iso-peptide bond as fluorescence polarisation substrate. Reactions were incubated at room temperature and read every 2 min for 120 min. Readings were performed on a Pherastar Plus (BMG Labtech). λ Excitation 540 nm; λ Emission 590 nm.
A typical 8-point dilution series to be 30, 10, 3, 1, 0.3, 0.1, 0.03, 0.01 μM final. […] Either 1 μl of 50% DMSO or diluted compound was added to the plate. UCHL1 was diluted in reaction buffer (20 mM Tris, pH 7.5, 100 mM NaCl, 0.05% Tween 20, 0.5 mg/ml BSA, 5 mM beta-mercaptoethanol) to the equivalent of 0.05 μl/well and 10 μl of diluted UCHL1 was added to the compound. Enzyme and compound were incubated for 30 min at room temp. Reactions were initiated by the addition of 50 nM of TAMRA labelled peptide linked to ubiquitin via an iso-peptide bond as fluorescence polarisation substrate. Reactions were read immediately after addition of substrate and following a 2-hour incubation at room temperature. Readings were performed on a Pherastar Plus (BMG Labtech). λ Excitation 540 nm; λ Emission 590 nm.

A further experiment deals with USP30 (Homo sapiens (Human), UniProt Q70CQ3). Nature of the experiment: USP30 biochemical IC50 assay (fluorescence polarisation). The protocol: A typical 8-point dilution series would be 100, 30, 10, 3, 1, 0.3, 0.1, 0.03 μM final. […] Either 1 μl of 50% DMSO or diluted compound was added to the plate. USP30 was diluted in reaction buffer (40 mM Tris, pH 7.5, 0.005% Tween 20, 0.5 mg/ml BSA, 5 mM beta-mercaptoethanol) to the equivalent of 0.05 μl/well and 10 μl of diluted USP30 was added to the compound. Enzyme and compound were incubated for 30 min at room temp. Reactions were initiated by the addition of 50 nM of TAMRA labelled peptide linked to ubiquitin via an iso-peptide bond as fluorescence polarisation substrate. Reactions were read immediately after addition of substrate and following a 2-hour incubation at room temperature. Readings were performed on a Pherastar Plus (BMG Labtech). λ Excitation 540 nm; λ Emission 590 nm.
For orientation: Fluorescence polarisation rises when a labelled molecule tumbles more slowly, as on binding a larger partner.

Where [1] appears, read: FLAG-UCHL1, 30 min preincubation at room temp, TAMRA-peptide-ubiquitin substrate 50 nM, read after 2-hour incubation, read-out: IC50 range.
The mark [2] stands for this setting: USP30 CD (57-517), 30 min preincubation at room temp, TAMRA-peptide-ubiquitin substrate 50 nM, read after 2-hour incubation, read-out: IC50 range.

Like-named read-outs stand apart in the source and are kept apart here. A value given as a limit tells only on which side of the number the result lay.

Chain of USP30 (Q70CQ3 57-517): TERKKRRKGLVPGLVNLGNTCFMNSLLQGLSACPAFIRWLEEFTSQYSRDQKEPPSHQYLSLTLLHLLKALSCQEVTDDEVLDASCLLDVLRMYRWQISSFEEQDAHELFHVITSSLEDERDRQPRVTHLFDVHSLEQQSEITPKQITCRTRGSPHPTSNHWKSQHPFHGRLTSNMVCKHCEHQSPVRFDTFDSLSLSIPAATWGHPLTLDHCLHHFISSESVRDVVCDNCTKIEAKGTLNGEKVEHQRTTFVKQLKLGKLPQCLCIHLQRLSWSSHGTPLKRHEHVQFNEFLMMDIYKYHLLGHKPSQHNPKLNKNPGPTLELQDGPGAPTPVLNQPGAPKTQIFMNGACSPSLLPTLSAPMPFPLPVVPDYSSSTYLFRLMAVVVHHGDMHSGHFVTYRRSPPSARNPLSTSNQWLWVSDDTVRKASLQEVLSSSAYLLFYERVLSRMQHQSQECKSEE
Chain of UCHL1 (P09936 whole entry): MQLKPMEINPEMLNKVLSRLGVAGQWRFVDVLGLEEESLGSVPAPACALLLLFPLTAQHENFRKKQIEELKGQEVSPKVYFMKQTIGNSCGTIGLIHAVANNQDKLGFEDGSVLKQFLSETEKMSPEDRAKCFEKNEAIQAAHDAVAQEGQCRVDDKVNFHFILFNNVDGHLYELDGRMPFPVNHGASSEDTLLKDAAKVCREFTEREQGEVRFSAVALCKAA

On to `N#CN1CCC(NS(=O)(=O)c2ccc(-c3ccccc3)cc2)C1` (stereo not drawn) [Example 2, N-(1-cyanopyrrolidin-3-yl)-[1,1′-biphenyl]-4-sulfonamide], for which the IC50 on UCHL1 (setting [1]) is 1000 to 10000 nM; at USP30 (setting [2]), 100 to 1000 nM. Consider `N#CN1CC[C@H](S(=O)(=O)N2CC(c3ccc(Cl)cc3)C2)C1` [Example 35, (S)-3-((3-(4-chlorophenyl)azetidin-1-yl)sulfonyl)pyrrolidine-1-carbonitrile], for which the IC50 on USP30 (setting [2]) lay within 100 to 1000 nM. For `N#CN1CC[C@H](NS(=O)(=O)c2ccccc2)C1` [Example 6, (S)-N-(1-cyanopyrrolidin-3-yl)benzenesulfonamide], the IC50 at UCHL1 (setting [1]) lay within 10000 to 100000 nM; on USP30 (setting [2]), 1000 to 10000 nM. As for `N#CN1CC[C@@H](S(=O)(=O)N2CC(c3ccc(Cl)cc3)C2)C1` [Example 36, (R)-3-((3-(4-chlorophenyl)azetidin-1-yl)sulfonyl)pyrrolidine-1-carbonitrile], the IC50 at USP30 (setting [2]) lay within 100 to 1000 nM.

As to `N#CN1CCC(NS(=O)(=O)c2ccc(N3CCCCC3)cc2)C1` (stereo not drawn) [Example 14, N-(1-cyanopyrrolidin-3-yl)-4-(piperidin-1-yl)benzenesulfonamide], the IC50 at UCHL1 (setting [1]) lay in the range of 10000 to 100000 nM; at USP30 (setting [2]) it was 100 to 1000 nM. Regarding `N#CN1CCC(NS(=O)(=O)c2ccc(-c3ccncc3)cc2)C1` (stereo not drawn) [Example 13, N-(1-cyanopyrrolidin-3-yl)-4-(pyridin-4-yl)benzenesulfonamide], the figures for the IC50 on UCHL1 (setting [1]) and at USP30 (setting [2]) were 1000 to 10000 nM and 100 to 1000 nM, respectively. Turning to `N#CN1CCC(S(=O)(=O)N2CCN(c3ccccn3)CC2)C1` (stereo not drawn) [Example 28], at USP30 (setting [2]), the half-inhibitory concentration (IC50) lay in the range of 100 to 1000 nM.

As to `Cc1ccc(CS(=O)(=O)N2CCO[C@H]3CN(C#N)C[C@H]32)cc1` (racemic) [Example 23, rac-(4aR,7aS)-4-(4-methylbenzyl)sulfonyl)hexahydropyrrolo[3,4-b][1,4]oxazine-6(2H)-carbonitrile], at USP30 (setting [2]), the IC50 fell in the range of 100 to 1000 nM. For `N#CN1CCC(NS(=O)(=O)c2ccc(Oc3ccccc3)nc2)C1` (stereo not drawn) [Example 16, N-(1-cyanopyrrolidin-3-yl)-6-phenoxypyridine-3-sulfonamide], the values for the IC50 at UCHL1 (setting [1]) and at USP30 (setting [2]) were 10000 to 100000 nM and 100 to 1000 nM, respectively.

Regarding `Cn1cc(-c2ccc(S(=O)(=O)NC3CCN(C#N)C3)cc2)cn1` (stereo not drawn) [Example 15, N-(1-cyanopyrrolidin-3-yl)-4-(1-methyl-1H-pyrazol-4-yl)benzenesulfonamide], the IC50 on UCHL1 (setting [1]) fell in the range of 1000 to 10000 nM; on USP30 (setting [2]), 100 to 1000 nM. Consider `N#CN1CCC(S(=O)(=O)N2CC(c3ccc(Cl)cc3)C2)C1` (stereo not drawn) [Example 34, 3-((3-(4-chlorophenyl)azetidin-1-yl)sulfonyl)pyrrolidine-1-carbonitrile], for which the IC50 at USP30 (setting [2]) was in the range of 100 to 1000 nM. On to `N#CN1CCC(NS(=O)(=O)c2ccccc2)C1` (stereo not drawn) [Example 5, N-(1-cyanopyrrolidin-3-yl)benzenesulfonamide], for which the IC50 on UCHL1 (setting [1]) was in the range of 10000 to 100000 nM. `CC(C)c1ccc(S(=O)(=O)NC2CCN(C#N)C2)cc1` (stereo not drawn) [Example 18, N-(1-cyanopyrrolidin-3-yl)-4-isopropylbenzenesulfonamide]: the IC50 is 10000 to 100000 nM on UCHL1 (setting [1]) and 1000 to 10000 nM at USP30 (setting [2]).

Turning to `N#CN1C[C@H]2CCN(S(=O)(=O)c3ccc(-c4cccnc4)cc3)[C@H]2C1` [Example 21, (3aR,6aR)-1-((4-(pyridin-3-yl)phenyl)sulfonyl)hexahydropyrrolo[3,4-b]pyrrole-5(1H)-carbonitrile], the IC50 on USP30 (setting [2]) was in the range of 100 to 1000 nM. `Cc1ccc(S(=O)(=O)N2CCO[C@@H]3CN(C#N)C[C@H]32)cc1` (racemic) [Example 22, rac-(4aR,7aR)-4-tosylhexahydropyrrolo[3,4-b][1,4]oxazine-6(2H)-carbonitrile]: the IC50 on USP30 (setting [2]) lay within 10000 to 100000 nM.

As for `N#CN1CCC(NS(=O)(=O)c2ccccc2-c2ccccc2)C1` (stereo not drawn) [Example 1, N-(1-cyanopyrrolidin-3-yl)-[1,1′-biphenyl]-2-sulfonamide], the IC50 at UCHL1 (setting [1]) lay within 10000 to 100000 nM; on USP30 (setting [2]), 100 to 1000 nM.

In the case of `Cc1ccc(F)cc1S(=O)(=O)NC1CCN(C#N)C1` (stereo not drawn) [Example 17, N-(1-cyanopyrrolidin-3-yl)-5-fluoro-2-methylbenzenesulfonamide], at USP30 (setting [2]), the IC50 lay in the range of 1000 to 10000 nM.

`N#CN1CCC(NS(=O)(=O)c2ccc(-c3cncnc3)cc2)C1` (stereo not drawn) [Example 9, N-(1-cyanopyrrolidin-3-yl)-4-(pyrimidin-5-yl)benzenesulfonamide]: the IC50 at UCHL1 (setting [1]) was in the range of 1000 to 10000 nM; on USP30 (setting [2]), 100 to 1000 nM. The corresponding values for `N#CN1CCC(NS(=O)(=O)c2ccc(-c3ccccc3)cn2)C1` (stereo not drawn) [Example 11, N-(1-cyanopyrrolidin-3-yl)-5-phenylpyridine-2-sulfonamide] are 10000 to 100000 nM and 100 to 1000 nM.

Regarding `N#CN1CC[C@@H](NS(=O)(=O)c2ccc(-c3ccccc3)cc2)C1` [Example 3, (R)-N-(1-cyanopyrrolidin-3-yl)-[1,1′-biphenyl]-4-sulfonamide], the IC50 lay in the range of 10000 to 100000 nM at UCHL1 (setting [1]) and 100 to 1000 nM at USP30 (setting [2]).

On to `N#CN1CCC(S(=O)(=O)Nc2ccc(-c3ccccc3)cc2)C1` (stereo not drawn) [Example 26, N-([1,1′-biphenyl]-4-yl)-1-cyanopyrrolidine-3-sulfonamide], for which the IC50 is 10000 to 100000 nM against UCHL1 and 100 to 1000 nM at USP30.

As for `N#CN1CCC(S(=O)(=O)N2CCN(c3ccc(F)cc3)CC2)C1` (stereo not drawn) [Example 27, 3-((4-(4-fluorophenyl)piperazin-1-yl)sulfonyl)pyrrolidine-1-carbonitrile], the IC50 on USP30 (setting [2]) was 10000 to 100000 nM.

On to `CN([C@@H]1CCN(C#N)C1)S(=O)(=O)c1ccc(-c2cccnc2)cc1` [Example 20, (R)—N-(1-cyanopyrrolidin-3-yl)-N-methyl-4-(pyridin-3-yl)benzenesulfonamide], for which the values for the IC50 at UCHL1 (setting [1]) and on USP30 (setting [2]) were 1000 to 10000 nM and 100 to 1000 nM, respectively. As to `N#CN1CCC(S(=O)(=O)N2CCN(c3ncccn3)CC2)C1` (stereo not drawn) [Example 29, 3-((4-(pyrimidin-2-yl)piperazin-1-yl)sulfonyl)pyrrolidine-1-carbonitrile], on USP30 (setting [2]), the IC50 was in the range of 1000 to 10000 nM. For `N#CN1CC[C@H](NS(=O)(=O)c2ccc(-c3ccccc3)cc2)C1` [Example 4, (S)-N-(1-cyanopyrrolidin-3-yl)-[1,1′-biphenyl]-4-sulfonamide], the IC50 on UCHL1 (setting [1]) was in the range of 1000 to 10000 nM; at USP30 (setting [2]), 100 to 1000 nM.

In the case of `N#CN1CCC(S(=O)(=O)N2CCC(c3ccc(Cl)cc3)CC2)C1` (stereo not drawn) [Example 30, 3-((4-(4-chlorophenyl)piperidin-1-yl)sulfonyl)pyrrolidine-1-carbonitrile], the IC50 on USP30 (setting [2]) is less than 100 nM. Consider `CN1CCN(c2ccc(S(=O)(=O)NC3CCN(C#N)C3)cc2)CC1` (stereo not drawn) [Example 10, N-(1-cyanopyrrolidin-3-yl)-4-(4-methylpiperazin-1-yl)benzenesulfonamide], for which, at USP30 (setting [2]), the IC50 fell in the range of 1000 to 10000 nM. For the compound `N#CN1CCC(S(=O)(=O)N2CC(Oc3ccccc3)C2)C1` (stereo not drawn) [Example 37, 3-((3-phenoxyazetidin-1-yl)sulfonyl)pyrrolidine-1-carbonitrile], the IC50 on USP30 (setting [2]) was 10000 to 100000 nM. As for `N#CN1CCC(NS(=O)(=O)c2ccc(-c3ccc(F)cc3)cc2)C1` (stereo not drawn) [Example 12, N-(1-cyanopyrrolidin-3-yl)-4′-fluoro-[1,1′-biphenyl]-4-sulfonamide], the IC50 at UCHL1 (setting [1]) was in the range of 1000 to 10000 nM. As to `N#CN1CCC(S(=O)(=O)N2CCC(Cc3ccccc3)CC2)C1` (stereo not drawn) [Example 33, 3-((4-benzylpiperidin-1-yl)sulfonyl)pyrrolidine-1-carbonitrile], the IC50 on USP30 (setting [2]) lay in the range of 100 to 1000 nM. Same read-out and setting: the figure for `N#CN1CC[C@@H](NS(=O)(=O)c2ccccc2)C1` [Example 7, (R)-N-(1-cyanopyrrolidin-3-yl)benzenesulfonamide] is 1000 to 10000 nM.

One may read the IC50 as the concentration at which inhibition is half-maximal.
